Read-outs that look alike come from different tables or passages of the source.
Target: T1, SIRT1 (Homo sapiens, UniProt Q96EB6)
T1 sequence (Q96EB6 1-747): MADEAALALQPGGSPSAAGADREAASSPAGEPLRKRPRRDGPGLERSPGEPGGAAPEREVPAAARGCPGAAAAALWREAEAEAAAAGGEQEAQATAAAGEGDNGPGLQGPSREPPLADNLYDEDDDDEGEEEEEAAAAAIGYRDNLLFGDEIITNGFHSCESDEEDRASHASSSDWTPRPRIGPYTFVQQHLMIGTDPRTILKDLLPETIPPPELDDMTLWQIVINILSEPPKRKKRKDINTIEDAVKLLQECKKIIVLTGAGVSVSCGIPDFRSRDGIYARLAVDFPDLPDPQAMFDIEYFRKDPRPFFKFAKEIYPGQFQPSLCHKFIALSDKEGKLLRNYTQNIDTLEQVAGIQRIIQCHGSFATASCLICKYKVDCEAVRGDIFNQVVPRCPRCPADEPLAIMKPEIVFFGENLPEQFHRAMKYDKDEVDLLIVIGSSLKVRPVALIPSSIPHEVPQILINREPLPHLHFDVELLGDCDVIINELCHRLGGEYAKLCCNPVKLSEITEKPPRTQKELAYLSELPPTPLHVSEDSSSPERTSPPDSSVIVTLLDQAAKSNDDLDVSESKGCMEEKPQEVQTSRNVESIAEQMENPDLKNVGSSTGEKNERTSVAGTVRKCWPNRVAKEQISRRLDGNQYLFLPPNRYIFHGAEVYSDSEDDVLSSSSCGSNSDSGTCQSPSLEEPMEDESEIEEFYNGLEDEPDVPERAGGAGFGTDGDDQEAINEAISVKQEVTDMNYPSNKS
Experiment: Trp mass spectrometry assay of SIRT1 activation
Assay type: biochemical
Conditions: for TRP Activity (EC1.5): EC1.5 = concentration that results in 150% activation of SIRT1
Outline: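 Activation read-out: mass-spec measurement of O-acetyl-ADP-ribose or deacetylated Trp peptide versus compound-free controls, giving EC1.5 and Percent Maximum Activation. Reactions ran 25 min at 25 °C, pH 7.5, with 120 μM βNAD+, 0.5 μM acetylated p53-derived peptide and 10 nM His-tagged SIRT1.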

[1] = Trp peptide assay, maximum activity relative to control (100%), read-out: TRP MAX RESP (percent maximum fold activation)
[2] = concentration giving 150% activation of SIRT1, Trp peptide substrate
[3] = Trp mass spectrometry assay, EC1.5 = concentration of test compound that results in 150% activation of SIRT1

`O=C(Nc1cnccn1)N1c2nc(-c3ccc(C(F)(F)F)nc3)ccc2N2CC[C@H]1C2` [(9S)-N-(pyrazin-2-yl)-5-[6-(trifluoromethyl)pyridin-3-yl]-1,6,8-triazatricyclo[7.2.1.0 {2,7}]dodeca-2(7),3,5-triene-8-carboxamide] was tested. Which “TRP Activity (EC1.5)” value (Trp peptide assay) did it give?
Its value is “B (B (EC1.5 1-25 μM))”.

What about the Emax [1] of the same compound?
The Emax was over 150%.

How did the “TRP Activity (EC1.5)” value (Trp peptide assay) turn out when `O=C(Nc1ccnc(OC[C@H](O)CO)c1)N1c2nc(-c3cccc(C(F)(F)F)c3)ccc2N2CC[C@H]1C2` [(9S)-N-{2-[(2R)-2,3-dihydroxypropoxy]pyridin-4-yl}-5-[3-(trifluoromethyl)phenyl]-1,6,8-triazatricyclo[7.2.1.0 {2,7}]dodeca-2(7),3,5-triene-8-carboxamide] was run?
The value was “A (A (EC1.5<1 μM))”.

And the Emax [1]?
Its Emax is over 150%.

`O=C(NCCn1ccnc1)N1c2nc(-c3cccc(C(F)(F)F)c3)ccc2N2CC[C@H]1C2` [Example 661] was tested. Which “Tryp AVG EC1.5 (μM)” value [2] did it give?
Its value is “C (C (EC1.5>25 μM))”.

How did the “TRP Activity (EC1.5)” value (Trp peptide assay) turn out when `O=C(Nc1cnccn1)N1c2nc(N3CCC[C@H](C(F)(F)F)C3)ccc2N2CCC[C@H]1C2` [(9S)-N-(pyrazin-2-yl)-5-[(3S)-3-(trifluoromethyl)piperidin-1-yl]-1,6,8-triazatricyclo[7.3.1.0 {2,7}]trideca-2(7),3,5-triene-8-carboxamide] was run?
Its value is “A (A (EC1.5<1 μM))”.

What about the Emax [1] of the same compound?
The Emax was over 150%.

`CN(C)c1cccc(-c2ccc3c(n2)N(C(=O)Nc2cnccn2)[C@H]2CCN3C2)c1` [(9S)-5-[3-(dimethylamino)phenyl]-N-(pyrazin-2-yl)-1,6,8-triazatricyclo[7.2.1.0 {2,7}]dodeca-2(7),3,5-triene-8-carboxamide] was tested. Which “TRP Activity (EC1.5)” value (Trp peptide assay) did it give?
Its value is “B (B (EC1.5 1-25 μM))”.

And the Emax [1]?
Its Emax is over 150%.

How did the “Tryp AVG EC1.5 (μM)” value [3] turn out when `NC(=O)CN1CCC(c2cccc(NC(=O)N3c4nc(-c5cccc(C(F)(F)F)c5)ccc4N4CC[C@H]3C4)c2)C1` (stereo partly drawn) [Example 594] was run?
Its value is “A (A (EC1.5<1 μM))”.

`Cc1cc(-c2ccc3c(n2)N(C(=O)N2CCOCC2)[C@H]2CCN3C2)ccn1` [(9S)-5-(2-methylpyridin-4-yl)-8-[(morpholin-4-yl)carbonyl]-1,6,8-triazatricyclo[7.2.1.0 {2,7}]dodeca-2,4,6-triene] was tested. Which “TRP Activity (EC1.5)” value (Trp peptide assay) did it give?
Its value is “C (C (EC1.5>25 μM))”.

What about the Emax [1] of the same compound?
The Emax was under 150%.

Which “Tryp AVG EC1.5 (μM)” value [2] does the source give for `O=C(NCCCn1ccnc1)N1c2nc(-c3cccc(C(F)(F)F)c3)ccc2N2CC[C@H]1C2` [Example 627] here?
The value was “B (B (EC1.5 1-25 μM))”.

Which “Tryp AVG EC1.5 (μM)” value [3] does the source give for `O=C(Nc1cnccn1)N1c2nc(-c3cccc(Cl)c3)cc(O)c2N2CCC[C@H]1C2` [Example 443] here?
Its value is “B (B (EC1.5 1-25 μM))”.

What about the Emax (Trp mass spectrometry assay, percent maximum fold activation of SIRT1, read-out: Tryp % Fold Act) of the same compound?
The Emax was over 150%.

Which “Tryp AVG EC1.5 (μM)” value [3] does the source give for `O=C(Nc1cncc(F)c1)N1c2nc(-c3cccnc3)ccc2N2CCC[C@H]1C2` [Example 453] here?
Its value is “B (B (EC1.5 1-25 μM))”.

With `NCC#Cc1ccc(NC(=O)N2c3nc(-c4cccc(C(F)(F)F)c4)ccc3N3CC[C@H]2C3)cc1-c1cnco1` [Example 766] as the compound, how does the “Tryp AVG EC1.5 (μM)” value [2] read?
Its value is “A (A (EC1.5<1 μM))”.

For `COc1cc(NC(=O)N2c3nc(-c4cccc(CC(O)CO)c4)ccc3N3CC[C@H]2C3)ncn1` (stereo partly drawn) [Example 355], which “Tryp AVG EC1.5 (μM)” value (Trp mass spectrometry assay, concentration of test compound giving 150% activation of SIRT1) is on record?
Its value is “B (B (EC1.5 1-25 μM))”.

For `CC(C)(C)OC(=O)N1CCc2cc(NC(=O)N3c4nc(-c5cccc(C(F)(F)F)c5)ccc4N4CC[C@H]3C4)ccc2C1` [Example 611], which “Tryp AVG EC1.5 (μM)” value [3] is on record?
The value was “A (A (EC1.5<1 μM))”.

`O=C(CCCCCNC(=O)c1ccc(-c2c3ccc(=O)cc-3oc3cc(O)ccc23)c(C(=O)O)c1)NCc1ccc(NC(=O)N2c3nc(-c4cccc(C(F)(F)F)c4)ccc3N3CCC[C@H]2C3)cc1` [546 (3), 2-(6-hydroxy-3-oxo-3H-xanthen-9-yl)-5-((6-oxo-6-((4-((9S)-2-(3-(trifluoromethyl)phenyl)-7,8,9,10-tetra-hydro-6H-5,9-methanopyrido[2,3-b][1,4]diazocine-10-carboxamido)benzyl)amino)hexyl)carbamoyl)benzoic acid] was tested. Which “Tryp AVG EC1.5 (μM)” value [3] did it give?
The value was “B (B (EC1.5 1-25 μM))”.

`O=C(Nc1cc(Br)cc(-c2cnco2)c1)N1c2nc(-c3cccc(C(F)(F)F)c3)ccc2N2CC[C@H]1C2` [Example 562] was tested. Which “Tryp AVG EC1.5 (μM)” value [3] did it give?
Its value is “A (A (EC1.5<1 μM))”.

Which “Tryp AVG EC1.5 (μM)” value [3] does the source give for `O=C(NCCc1ccccn1)N1c2nc(-c3cccc(C(F)(F)F)c3)ccc2N2CC[C@H]1C2` [Example 614] here?
Its value is “B (B (EC1.5 1-25 μM))”.

How did the “Tryp AVG EC1.5 (μM)” value [3] turn out when `Cc1[nH]ncc1-c1ccc2c(n1)N(C(=O)Nc1cccnc1)[C@H]1CCN2C1` [Example 490] was run?
The value was “B (B (EC1.5 1-25 μM))”.

With `O=C(Nc1cnccn1)N1c2nc(-c3ccc(OC(F)F)nc3)ccc2N2CC[C@H]1C2` [(9S)-5-[6-(difluoromethoxy)pyridin-3-yl]-N-(pyrazin-2-yl)-1,6,8-triazatricyclo[7.2.1.0 {2,7}]dodeca-2(7),3,5-triene-8-carboxamide] as the compound, how does the “TRP Activity (EC1.5)” value (Trp peptide assay) read?
The value was “B (B (EC1.5 1-25 μM))”.

What about the Emax [1] of the same compound?
The Emax was over 150%.

What does the source list for `C#CCCCNc1nccc(NC(=O)N2c3nc(-c4ccc(C5(C(F)(F)F)N=N5)cc4)ccc3N3CC[C@H]2C3)n1` [Example 798]?
Tryp AVG EC1.5 (μM) [2]: A (A (EC1.5<1 μM)); Emax (percent maximum fold activation of SIRT1, Trp peptide substrate, read-out: Tryp % Fold Act): > 150%

`O=C(CCCC[C@@H]1SCC2NC(=O)NC21)NCCCCCC(=O)NCc1ccc(NC(=O)N2c3nc(-c4cccc(C(F)(F)F)c4)ccc3N3CCC[C@H]2C3)cc1` (stereo partly drawn) [Example 430] was tested. Which “Tryp AVG EC1.5 (μM)” value [3] did it give?
Its value is “A (A (EC1.5<1 μM))”.

With `N#Cc1cncc(-c2ccc3c(n2)N(C(=O)Nc2cncc(F)c2)[C@H]2CCCN3C2)c1` [Example 535] as the compound, how does the “Tryp AVG EC1.5 (μM)” value [3] read?
Its value is “B (B (EC1.5 1-25 μM))”.

How did the “Tryp AVG EC1.5 (μM)” value [3] turn out when `Cc1nc(NC(=O)N2c3nc(-c4cccc(Cl)c4)ccc3N3CCC2CC3)sc1C` [Example 569] was run?
Its value is “B (B (EC1.5 1-25 μM))”.

For `Cc1cc(OCC(O)CO)nc(NC(=O)N2c3nc(-c4cccc(C(F)(F)F)c4)ccc3N3CC[C@H]2C3)n1` (stereo partly drawn) [Example 26], which “Tryp AVG EC1.5 (μM)” value (Trp peptide substrate, concentration giving 150% activation of SIRT1) is on record?
The value was “B (B (EC1.5 1-25 μM))”.

How did the “Tryp AVG EC1.5 (μM)” value [3] turn out when `Cc1cncc(-c2ccc3c(n2)N(C(=O)Nc2ccccn2)[C@H]2CCCN3C2)c1` [Example 504] was run?
Its value is “A (A (EC1.5<1 μM))”.

`[N-]=[N+]=NCc1cc(N=[N+]=[N-])cc(-c2ccc3c(n2)N(C(=O)Nc2cnccn2)[C@H]2CCN3C2)c1` [Example 808] was tested. Which “Tryp AVG EC1.5 (μM)” value [2] did it give?
The value was “A (A (EC1.5<1 μM))”.

`O=C(Nc1ccccn1)N1c2nc(-c3ccnc(N4CC[C@@H](F)C4)c3)ccc2N2CC[C@H]1C2` [Example 448] was tested. Which “Tryp AVG EC1.5 (μM)” value [3] did it give?
Its value is “B (B (EC1.5 1-25 μM))”.

With `O=C(Nc1cc(-c2cnco2)ccn1)N1c2nc(-c3cccc(C(F)(F)F)c3)ccc2N2CC[C@H]1C2` [Example 589] as the compound, how does the “Tryp AVG EC1.5 (μM)” value [3] read?
The value was “A (A (EC1.5<1 μM))”.

How did the “TRP Activity (EC1.5)” value (Trp peptide assay) turn out when `Cc1cc(-c2ccc3c(n2)N(C(=O)Nc2cn(C)nn2)[C@H]2CCN3C2)ccn1` [(9S)-N-(1-methyl-1H-1,2,3-triazol-4-yl)-5-(2-methylpyridin-4-yl)-1,6,8-triazatricyclo[7.2.1.0^{2,7}]dodeca-2(7),3,5-triene-8-carboxamide] was run?
Its value is “B (B (EC1.5 1-25 μM))”.

What about the Emax [1] of the same compound?
The Emax was over 150%.

What does the source list for `Cc1cc(-c2ccc3c(n2)N(C(=O)Nc2cncc(C(C)C)n2)[C@H]2CCN3C2)ccn1` [(9S)-5-(2-methylpyridin-4-yl)-N-[6-(propan-2-yl)pyrazin-2-yl]-1,6,8-triazatricyclo[7.2.1.0^2,7]dodeca-2(7),3,5-triene-8-carboxamide]?
TRP Activity (EC1.5) (Trp peptide assay): A (A (EC1.5<1 μM)); Emax [1]: > 150%

How did the “TRP Activity (EC1.5)” value (Trp peptide assay) turn out when `Cc1cc(-c2ccc3c(n2)N(C(=O)Nc2cncc(F)n2)[C@H]2CCN3C2)ccn1` [(9S)-N-(6-fluoropyrazin-2-yl)-5-(2-methylpyridin-4-yl)-1,6,8-triazatricyclo[7.2.1.0 {2,7}]dodeca-2(7),3,5-triene-8-carboxamide] was run?
Its value is “A (A (EC1.5<1 μM))”.

What about the Emax [1] of the same compound?
The Emax was over 150%.

For `O=C(Nc1cc(-c2cnco2)ccn1)N1c2nc(-c3cncc(C(F)(F)F)c3)ccc2N2C[C@@H](O)[C@H]1C2` [Example 726], which “Tryp AVG EC1.5 (μM)” value [2] is on record?
The value was “B (B (EC1.5 1-25 μM))”.
